According to patent publication US20060002934A1 (priority 2002, published 2006):

Columns and labels:
[1] = tested on: parental, wt and mutant E-cadherin expressing MDA-MB-435S cells; assay: Sensitivity profiling by XTT-cell proliferation and viability assay; assay type: cell-based, human; details: 48 h treatment, increasing concentrations; parental vs wt vs mutant E-cadherin cells
Procedure: Cells were seeded at a density of […] cells per well in 96-well microtiter plates (Nunc, Wiesbaden-Biebrich, Germany) in 100 μl DMEM with 10% FCS per-well, and cell proliferation was investigated by XTT-cell proliferation and viability assay (Roche Molecular Biochemicals, Mannheim, Germany). After 24, 48 and 72 h, 50 μl XTT labeling mixture was added. The cleavage of the tetrazolium salt XTT to form a formazan dye that occurs in metabolically active viable cells was quantified spectrophotometrically by measuring the absorbance of the formazan product at 450 nm by an ELISA plate reader. The absorbance values obtained when culture medium without cells was assayed was subtracted from the values obtained with cells. Quadruplicate determinations were performed for each time point. The sensitivity of parental, wt and mutant E-cadherin expressing MDA-MB-435S cells to the chemotherapeutic agents cisplatin, etoposide and 5-FU was investigated by XTT-cell proliferation and viability assay as described above. […] After 48 h, 50 μXTT labeling mixture was added and the absorbance values at 450 nm were measured spectrophotometrically by an ELISA plate reader. The absorbance values obtained when culture medium without cells was assayed, were subtracted from the values obtained with cells. […] The percentage of viable cells was determined corresponding to non-treated cells.

[2] = tested on: parental, wt and mutant E-cadherin expressing MDA-MB-435S cells; assay: Colony formation assay; assay type: cell-based, human; details: 2 h treatment, colonies counted after 7 days; parental vs wt vs mutant E-cadherin cells
Procedure: Chemosensitivity to cisplatin, etoposide and 5-FU of parental, wt and mutant E-cadherin expressing MDA-MB-435S cells was investigated by colony formation assay. Cells were seeded at a density of 2×10^3 cells per 6-well and treated 3 h later for 2 h with cisplatin, etoposide or 5-FU. Colonies were fixed and stained after 7 days with Diff Quick Reagent (Dade Behring, Liederbach, Germany) and the colony number was determined with Scion Image Software from Scion Corporation (Frederick, USA). The percentage of colonies was determined corresponding to non-treated cells.

## N.N.[Cl][Pt][Cl] [cisplatin]
[1]
  sensitivity profile, cell survival by XTT assay: reduced sensitivity of wt or mutant E-cadherin expressing MDA-MB-435S cells as compared to parental cells
[2]
  sensitivity profile, colony formation: reduced sensitivity of wt or mutant E-cadherin expressing MDA-MB-435S cells as compared to parental cells
